Columns and labels:
Experiment in all cases: area over the GR curve, 72 h; higher = more effect;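 further: Dye Drop or Deep Dye Drop imaging of viable cells in 384-well plates (Hoechst nuclei, LIVE/DEAD dye), nine half-log doses, GR normalized to DMSO controls and time-zero plates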
[1] = test system: AU565
[2] = test system: BT474
[3] = test system: BT549
[4] = test system: HCC1143
[5] = test system: HCC1395
[6] = test system: HCC202
[7] = test system: MCF10A
[8] = test system: PDX1258
[9] = test system: PDXHCI002
[10] = test system: SUM1315
[11] = test system: SUM190PT
[12] = test system: SUM44PE
[13] = test system: UACC812

Row | Structure (SMILES) | area over the GR curve [1] | area over the GR curve [2] | area over the GR curve [3] | area over the GR curve [4] | area over the GR curve [5] | area over the GR curve [6] | area over the GR curve [7] | area over the GR curve [8] | area over the GR curve [9] | area over the GR curve [10] | area over the GR curve [11] | area over the GR curve [12] | area over the GR curve [13]
1 | CN(C)C/C=C/C(=O)Nc1ccc(C(=O)Nc2cccc(Nc3ncc(Cl)c(-c4c[nH]c5ccccc45)n3)c2)cc1 [THZ1] (max 1 µM) | 0.607 GR | 0.686 GR | 0.381 GR | 0.487 GR | 0.609 GR | 0.42 GR | 0.36 GR | 0.633 GR | 0.527 GR | 0.229 GR | 0.767 GR | 0.706 GR | 0.0711 GR
2 | CCNC(=O)c1noc(-c2cc(C(C)C)c(O)cc2O)c1-c1ccc(CN2CCOCC2)cc1 [Luminespib/NVP-AUY922] (max 1 µM) | 0.689 GR | 0.781 GR | 0.612 GR | 0.693 GR | 0.617 GR | 0.431 GR | 0.613 GR | 0.608 GR | 0.7 GR | 0.606 GR | 0.728 GR | 0.804 GR | 0.881 GR
3 | C[C@@H]1COCCN1c1cc(C2([S@](C)(=N)=O)CC2)nc(-c2cc[nH]c3nccc2-3)n1 [AZD6738] (max 10 µM) | 0.0383 GR | 0.0277 GR | 0.0821 GR | 0.0282 GR | 0.194 GR | 0.0023 GR | 0.0334 GR | 0.0598 GR | 0.0278 GR | 0.0543 GR | 0.124 GR | 0.365 GR | -0.0578 GR
4 | C=CC(=O)Nc1ccc(C(=O)Nc2[nH]nc3c2CN(C(=O)N[C@H](CN(C)C)c2ccccc2)C3(C)C)cc1 [YKL-5-124] (max 10 µM) | 1 GR | 0.944 GR | 0.869 GR | 0.788 GR | 0.874 GR | 0.706 GR | 0.921 GR | 0.993 GR | 0.849 GR | 0.703 GR | 0.831 GR | 1.16 GR | 1.02 GR
5 | CC[C@@]1(O)C(=O)OCc2c1cc1n(c2=O)Cc2cc3c(CN(C)C)c(O)ccc3nc2-1 [Topotecan] (max 10 µM) |  |  | 0.851 GR | 0.904 GR | 1.08 GR |  | 0.765 GR | 0.867 GR | 1.02 GR | 0.769 GR |  |  | 
6 | CCCCOc1c(C(=O)c2c(F)cc(C)cc2F)c[nH]c2nncc1-2 (max 10 µM) | 0.514 GR | 0.137 GR | 0.94 GR | 0.837 GR | 0.807 GR | 0.359 GR | 0.39 GR | 1.05 GR | 0.108 GR | 0.872 GR | 0.715 GR | 1.12 GR | 0.886 GR
7 | CC(=O)O[C@H]1C(=O)[C@@]2(C)[C@H]([C@H](OC(=O)c3ccccc3)[C@]3(O)C[C@H](OC(=O)[C@H](O)[C@@H](NC(=O)c4ccccc4)c4ccccc4)C(C)=C1C3(C)C)[C@]1(OC(C)=O)CO[C@@H]1C[C@@H]2O [Paclitaxel] (max 1 µM) | 0.994 GR | 0.873 GR | 0.699 GR | 0.839 GR | 0.839 GR | 0.552 GR | 0.702 GR | 0.68 GR | 0.921 GR | 0.793 GR | 0.872 GR | 0.953 GR | 1.44 GR
8 | CCN1CCN(Cc2ccc(Nc3ncc(F)c(-c4cc(F)c5nc(C)n(C(C)C)c5c4)n3)nc2)CC1 (max 10 µM) | 0.657 GR | 0.329 GR | 0.127 GR | 0.541 GR | 0.562 GR | 0.277 GR | 0.381 GR | 0.329 GR | 0.764 GR | 0.582 GR | 0.66 GR | 0.651 GR | 1.04 GR

— the supplement of paper PMC9663587
